In patent US10280183B2, “Therapeutic agent for treating tumors” (THE RESEARCH FOUNDATION FOR THE STATE UNIVERSITY OF NEW YORK, priority 2014, dated 2019):
Like-named read-outs stand apart in the source and are kept apart here.

What was measured:
[1] = system: MX-1 human breast carcinoma cell line (BR+); assay: In vitro cytotoxicity, standard MTT assay, MX-1 cells; assay type: cell-based; details: Homo sapiens, Breast carcinoma cell
Description: (§1) Cell Culture. All cell lines were obtained from ATCC unless otherwise noted. Cells were cultured in RPMI-1640 cell culture medium (Gibco) or DMEM (Gibco), both supplemented with 5% (v/v) heat-inactivated fetal bovine serum (FBS), 5% (v/v) NuSerum, and 1% (v/v) penicillin and streptomycin (PenStrep) at 37° C. in a humidified atmosphere with 5% CO2. MX-1 and ID8 (obtained from University of Kansas Medical Center) cells were cultured as monolayers on 100 mm tissue culture dishes in supplemented RPMI-1640. L1210 and L1210FR (a gift from Dr. Gregory Russell-Jones, Access Pharmaceuticals Pty Ltd., Australia) were grown as a suspension in supplemented RPMI-1640, and WI-38 as a monolayer in supplemented DMEM. Cells were harvested, collected by centrifugation at 850 rpm for 5 min, and resuspended in fresh culture medium. Cell cultures were routinely divided by treatment with trypsin (TrypLE, Gibco) as needed every 2-4 days and collected by centrifugation at 850 rpm for 5 min, and resuspended in fresh cell culture medium, containing varying cell densities for subsequent biological experiments and analysis.
(§2) In Vitro Cytotoxicity Assays. […] Cells were harvested, collected, and resuspended in 100 μL cell culture medium at concentrations ranging from 0.5-1.5×10^4 cells per well in a 96-well plate. For adhesive cell types, cells were allowed to descend to the bottom of the wells overnight, and fresh medium was added to each well upon removal of the old medium.
(§3) For the MTT assay (Table 1 and the Assay 1 in Table 2) of paclitaxel, taxoid 3 and conjugates 1 and 15, cells were resuspended in 200 μL medium with 8,000 to 10,000 cells per well of a 96-well plate and incubated at 37° C. for 24 h before drug treatment. In DMSO stock solutions, each drug or conjugate was diluted to a series of concentrations in cell culture medium to prepare test solutions. After removing the old medium, these test solutions were added to the wells in the 96-well plate to give the final concentrations ranging from 0.5 to 5,000 nM (100 μL), and the cells were subsequently cultured at 37° C. for 48 h (Table 1) or 72 h (Table 2, Assay 1). For the leukemia cell lines, L1210 and L1210FR, cells were harvested, collected, and resuspended in the test solutions ranging from 0.5 to 5,000 nM (100 μL) at 0.5 to 0.8 ×10^4 cells per well in a 96-well plate and subsequently incubated at 37° C. for 48 h (Table 1) or 72 h (Table 2, Assay 1).
(§4) In the Assay 2 (Table 2), cells were incubated with 1 or 15 at 37° C. for 24 h, and the drug medium was removed. Then, treated cells were thoroughly washed with PBS, and GSH-OEt (6 equiv. to conjugate) in cell culture medium (200 μL) was added to the wells. These cells were incubated at 37° C. for an additional 48 h, i.e., the total incubation time was 72 h.
(§5) In the Assay 3 (Table 2), cells were incubated with 1 or 15 at 37° C. for 24 h, and GSH-OEt (6 equivalents) in cell culture medium (100 μL) was directly added to the wells. These cells were incubated at 37° C. for an additional 48 h, i.e. the total incubation time was also 72 h.
(§6) For all experiments, after removing the test medium, fresh solution of MTT in PBS (40 μL of 0.5 mg MTT/mL) was added to the wells, and the cells were incubated at 37° C. for 3 h. The MTT solution was then removed, and the resulting insoluble violet formazan crystals were dissolved in 0.1 N HCl in isopropanol with 10% Triton X-100 (40 μL) to give a violet solution. The spectrophotometric absorbance measurement of each well in the 96-well plate was run at 570 nm using a Labsystems Multiskan Ascent microplate reader. The IC50 values and their standard errors were calculated from the viability-concentration curve using Four Parameter Logistic Model of Sigmaplot. The concentration of DMSO per well was ≤1% in all cases. Each experiment was run in triplicate.

[2] = system: ID8 murine ovarian carcinoma cell line (BR+); assay: In vitro cytotoxicity, standard MTT assay, ID8 cells; assay type: cell-based; details: Mus musculus, Ovarian carcinoma cell, 48 h, read-out: Cytotoxicity IC50, ID8
Description: as §1, §2
as §3, with “After removing the old medium, these test solutions were added to the wells in the 96-well plate to give the final concentrations ranging from 0.5 to 5,000 nM (100 μL), and the cells were subsequently cultured at 37° C. for 48 h (Table 1) or 72 h (Table 2, Assay 1).” left out
as §6

[3] = system: L1210FR murine lymphocytic leukemia cell line (BR+); assay: In vitro cytotoxicity, standard MTT assay, L1210FR cells; assay type: cell-based; details: Mus musculus
Description: as §1, §2, §3, §4, §5, §6

[4] = system: L1210 murine lymphocytic leukemia cell line (BR−); assay: In vitro cytotoxicity, standard MTT assay, L1210 cells; assay type: cell-based; details: Mus musculus, L1210, 48 h, read-out: Cytotoxicity IC50, L1210
Description: as §1, §2, §3, §6

[5] = In vitro cytotoxicity, standard MTT assay, WI38 cells; assay type: cell-based, human; details: human; for IC50 at 48 h: incubation at 37° C. for 48 h
Description: as §1, §2, §3, §4, §5, §6

[6] = system: BR+ cancer cell lines (L1210FR, MX-1, ID8); assay: MTT cytotoxicity summarised over BR+ cancer cell lines; assay type: cell-based
Description: as §2, §3, §4, §5, §6
Thus, the Assay 1 results provide the potency of conjugates in the same manner as that for the first assay summarized in Table 1, but for longer incubation time (48 h vs. 72 h). […] Accordingly, this assay may mimic the corresponding in vivo assay conditions, wherein non-internalized conjugates would be removed from the tumor, redistributed and eventually excreted. […] Thus, in principle, the results (IC50 values) in this assay should be very close to those for the control using taxoid 3 (entry 2).

[7] = 48 h, read-out: Cytotoxicity IC50, MX-1
[8] = 72 h, read-out: Cytotoxicity IC50, MX-1, Assay 1
[9] = 48 h, read-out: Cytotoxicity IC50, L1210FR
[10] = 72 h, read-out: Cytotoxicity IC50, L1210FR, Assay 1
[11] = 72 h incubation, no GSH-OEt, read-out: Cytotoxicity IC50, WI38, Assay 1

| SMILES | IC50 [1, 7] [nM] | IC50 [1, 8] [nM] | IC50 [2] [nM] | IC50 [3, 9] [nM] | IC50 [3, 10] [nM] | IC50 [4] [nM] | IC50 at 72 h [5, 11] [nM] | IC50 at 48 h [5] [nM] | IC50 ([6]; 72 h incubation, read-out: IC50 range of free taxoid against MX-1 and L1210FR) [nM] | IC50 ([1]; read-out: Cytotoxicity IC50, MX-1, Assay 2) [nM] | IC50 ([1]; read-out: Cytotoxicity IC50, MX-1, Assay 3) [nM] | IC50 ([3]; read-out: Cytotoxicity IC50, L1210FR, Assay 2) [nM] | IC50 ([3]; read-out: Cytotoxicity IC50, L1210FR, Assay 3) [nM] | IC50 at 72 h ([5]; 24 h incubation, PBS wash, then GSH-OEt (6 equiv.) and additional 48 h, read-out: Cytotoxicity IC50, WI38, Assay 2) [nM] | IC50 at 72 h ([5]; 24 h incubation, then GSH-OEt (6 equiv.) added without washing, additional 48 h, read-out: Cytotoxicity IC50, WI38, Assay 3) [nM] | IC50 ([6]; 24 h, PBS wash, GSH-OEt, additional 48 h, range over conjugates 1 and 15, read-out: IC50 range against BR+ cancer cells (MX-1, L1210FR), Assay 2) [nM] | Cancer cell selectivity (BR-specificity), BR+ cancer cells vs BR− WI38 cells ([6]; Assay 2) | IC50 ([6]; GSH-OEt added after 24 h without PBS washing, additional 48 h, range over conjugates 1 and 15, read-out: IC50 range against MX-1 and L1210FR, third assay (Assay 3)) [nM] |
| --- | --- | --- | --- | --- | --- | --- | --- | --- | --- | --- | --- | --- | --- | --- | --- | --- | --- | --- |
| CC(=O)O[C@@]12CO[C@@H]1C[C@H](O)[C@@]1(C)C(=O)[C@H](OC(=O)C3CC3)C3=C(C)[C@@H](OC(=O)[C@H](O)[C@H](C=C(C)C)NC(=O)OC(C)(C)C)C[C@@](O)([C@@H](OC(=O)c4ccccc4)[C@H]21)C3(C)C [Taxoid 3, SB-T-1214, reference compound] | 4.13 ± 2.59 | 2.66 ± 0.16 | 0.17 ± 0.14 | 4.18 ± 1.8 | 2.32 ± 1.41 | 7.05 ± 1.38 | 4.89 ± 2.24 | 5.23 ± 0.27 | 2.32 to 2.66 | – | – | – | – | – | – | – | – | – |
| CC(=O)O[C@@]12CO[C@@H]1C[C@H](O)[C@@]1(C)C(=O)[C@H](OC(=O)C3CC3)C3=C(C)[C@@H](OC(=O)[C@H](OC(=O)Cc4ccccc4SSC(C)CCC(=O)NNC(=O)CCCC[C@@H]4SC[C@@H]5NC(=O)N[C@@H]54)[C@H](C=C(C)C)NC(=O)OC(C)(C)C)C[C@@](O)([C@@H](OC(=O)c4ccccc4)[C@H]21)C3(C)C (some centres unmarked) [Conjugate 15, Biotin-(SS-Linker)-SB-T-1214] | 15.4 ± 4.2 | 4.66 ± 0.87 | 4.32 ± 1.58 | 13.4 ± 6.8 | 12.3 ± 2.8 | 481 ± 34 | 645 ± 97 | 670 ± 89 | – | 3.85 ± 0.14 | 2.4 ± 0.18 | 5.15 ± 2.85 | 2.92 ± 2.34 | 590 ± 164 | 11 ± 3.1 | 3.85 to 6.6 | two-orders of magnitude difference | 2.4 to 2.92 |
